Laboratory results as given in US6825205B2 (priority 2002, dated 2004).

Assays:
[1] = target: μ opioid receptor (μ membrane protein) (Homo sapiens, UniProt P35372); experiment: biochemical
[2] = in vivo; conditions: Sprague-Dawley, rat, ip, 10 mg/kg
[3] = rat, in vivo

μ opioid receptor (μ membrane protein), sequence (P35372 whole entry, species assumed): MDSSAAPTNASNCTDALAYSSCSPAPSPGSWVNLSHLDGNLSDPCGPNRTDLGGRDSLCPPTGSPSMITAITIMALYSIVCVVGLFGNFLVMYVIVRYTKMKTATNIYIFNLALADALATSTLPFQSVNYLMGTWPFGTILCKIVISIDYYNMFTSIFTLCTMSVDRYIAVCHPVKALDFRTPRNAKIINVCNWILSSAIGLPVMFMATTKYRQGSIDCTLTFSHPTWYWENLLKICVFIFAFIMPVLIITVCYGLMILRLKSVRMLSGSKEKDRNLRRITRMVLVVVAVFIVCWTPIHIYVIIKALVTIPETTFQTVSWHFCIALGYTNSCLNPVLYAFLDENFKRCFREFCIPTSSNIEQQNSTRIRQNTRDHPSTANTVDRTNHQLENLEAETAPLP

Q: What does the source list for `C[N+]1(C)CC[C@]23c4c5ccc(O)c4O[C@H]2C(=O)CC[C@H]3[C@H]1C5` [N-methylhydromorphone, N-methylhydromorphonium iodide]?
A: EC50 [1]: 817 ± 83 nM; GTP-γ-S Activity/Efficacy % DAMGO [1]: 29 ± 1 % DAMGO; Kp [2]: 0.02 ± 0.01; Penetration of the CNS / blood-brain barrier [3]: does not penetrate the CNS
